In patent publication US10287267B2, “Isoquinolin-3-yl carboxamides and preparation and use thereof” (Samumed, LLC, priority 2016, dated 2019):
Where two headings read alike, the source gives them in different places.

How the values were obtained:
[1] = system: Wnt pathway (Sp5-Luc reporter, TCF/LEF binding sites) in SW480 colon carcinoma cells; assay: Screening assay for Wnt activity: Sp5-Luc reporter gene assay; assay type: cell-based, human; conditions: for inhibition at 10 µM: SW480, read-out: percent inhibition at 10 μM; for EC50: Sp5-Luc reporter, SW480 cells, 36 to 48 hours;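 on all read-outs here: firefly luciferase luminescence read in stably transduced SW480 cells carrying the Sp5 promoter reporter with eight TCF/LEF sites, compounds given in 0.1% DMSO final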
Experimental: The screening assay for Wnt activity is described as follows.
Following incubation, 15 μl of BriteLite Plus luminescence reagent (Perkin Elmer) was added to each well of the 384-well assay plates. The plates were placed on an orbital shaker for 2 min and then luminescence was quantified using the Envision (Perkin Elmer) plate reader.

[2] = system: IL-6; assay: IL-6 inhibition in LPS-stimulated human peripheral blood mononuclear cells (HTRF); assay type: cell-based; conditions: for inhibition at 10 µM: read-out: percent value in parentheses beside EC50 >10 μM; for EC50: Table 9, huPBMCs, LPS 50 ng/mL, 22 hours, dose-response starting from 10 μM;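 on all read-outs here: IL-6 detected by HTRF with an XL665- and Cryptate-labelled anti-IL-6 antibody pair, samples run in duplicate, EC50 obtained from a four-parameter Levenberg-Marquardt curve fit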
Experimental: After 22 hour incubation, a mixture of anti-IL6 XL665 and anti-IL-6 Cryptate diluted in reconstitution buffer (Catalog #62IL6PEC, Cisbio Inc., Bedford, Mass.) was added to each well. […] All samples were processed in duplicate. […] EC50 was determined using software generated by Dotmatics Limited (Windhill Bishops Stortford Herts, UK) using the Levenberg-Marquardt 4 parameter fitting procedure with finite different gradients.

[3] = system: α-smooth muscle actin (αSMA) positive LL29 cells; assay: Inhibition of fibrotic process: αSMA in TGF-β1 treated primary human fibroblasts from IPF patients; assay type: cell-based; conditions: for EC50: Table 8, LL29 fibroblasts from IPF patients, TGF-β1 20 ng/mL, 4 days; for inhibition at 10 µM: read-out: percent value in parentheses beside EC50 >10 μM;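 on all read-outs here: controls were TGF-β1 stimulated wells with DMSO vehicle (positive) and cells given DMSO alone (negative), cultured in F12 medium with 1% fetal bovine serum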
[4] = biological target: recombinant DYRK1A kinase (Homo sapiens (Human), UniProt Q13627); assay: DYRK1A kinase assay (Ser/Thr 18 peptide Z-lyte FRET); assay type: biochemical; conditions: 30 μM ATP, 1 h room temperature;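 further: Read-out is the coumarin to fluorescein emission ratio, referenced to unphosphorylated (0%) and phosphorylated (100%) Ser/Thr 18 peptide controls, values from dose-response curves by non-linear regression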
[5] = system: SW480 colon carcinoma cells; assay: Cell viability assay (CellTiter-Glo); assay type: cell-based, human; conditions: for EC50: SW480 cells, CellTiter-Glo, four days incubation
[6] = biological target: recombinant GSK3β kinase (Homo sapiens (Human), UniProt P49841); assay: GSK3β kinase assay (Ser/Thr 09 peptide Z-lyte FRET); assay type: biochemical; conditions: 46 μM ATP, 1 h room temperature;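 further: kinase activity read as coumarin to fluorescein emission ratio, 11-point threefold dilutions from 10 µM to 0.0003 µM in duplicate, unphosphorylated and phosphorylated peptide as 0% and 100% controls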
[7] = system: Tau phosphorylation at Ser396 (pSer396); assay: Tau phosphorylation assay (pSer396 ELISA / western blot) in SH-SY5Y cells; assay type: cell-based, human; conditions: SH-SY5Y cells, overnight (16-18 h) exposure, read-out: pSer396 Tau EC50;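 further: EC50 for reduction of Tau pSer396 in lysed cells, measured by colorimetric ELISA or chemiluminescent western blot, both using the same pSer396 antibody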
[8] = Homo sapiens, Fibroblast, 96 h, dose-response 10 μM to 0.94 nM

recombinant GSK3β kinase, sequence (P49841 whole entry): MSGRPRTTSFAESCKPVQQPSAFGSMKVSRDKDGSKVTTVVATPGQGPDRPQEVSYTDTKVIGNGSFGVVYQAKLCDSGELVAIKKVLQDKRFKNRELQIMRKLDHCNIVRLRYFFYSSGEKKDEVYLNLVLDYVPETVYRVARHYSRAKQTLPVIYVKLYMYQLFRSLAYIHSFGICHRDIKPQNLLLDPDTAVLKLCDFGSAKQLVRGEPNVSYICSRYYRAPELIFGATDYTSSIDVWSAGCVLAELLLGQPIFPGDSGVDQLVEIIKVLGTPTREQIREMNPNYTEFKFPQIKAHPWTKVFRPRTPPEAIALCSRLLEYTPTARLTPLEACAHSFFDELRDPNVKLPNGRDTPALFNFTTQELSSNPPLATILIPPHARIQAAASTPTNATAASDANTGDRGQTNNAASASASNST

| SMILES | inhibition at 10 µM ([1]; Homo sapiens) | EC50 ([1]; Homo sapiens) | inhibition at 10 µM ([2]; Homo sapiens, PBMC) | EC50 ([2]; Homo sapiens, PBMC) | EC50 [3, 8] | EC50 [4] | EC50 ([5]; Homo sapiens, 96 h) | inhibition at 10 µM ([5]; Homo sapiens, SW480, read-out: percent inhibition at 10 μM) | EC50 [6] | EC50 ([7]; Homo sapiens) | EC50 [1] | EC50 [2] | EC50 ([3]; dose-response 10 μM to […]) | EC50 [5] | EC50 [7] | inhibition at 10 µM ([3]; Homo sapiens, Fibroblast) |
| --- | --- | --- | --- | --- | --- | --- | --- | --- | --- | --- | --- | --- | --- | --- | --- | --- |
| Cc1nnc(-c2ccc3cnc(NC(=O)C4(F)CCN(CC(C)C)CC4)cc3c2)o1 [Compound 309, 4-Fluoro-1-isobutyl-N-(6-(5-methyl-1,3,4-oxadiazol-2-yl)isoquinolin-3-yl) piperidine-4-carboxamide] | 43.5% | > 10000 nM | 4.5% | > 10000 nM | 14 nM | 34.3 nM | > 10000 nM | 9.6% | 120 nM | 1220 nM |  |  |  |  |  |  |
| Cn1cc(-c2ccc3cnc(NC(=O)C4CCN(CC5(C(F)(F)F)CC5)CC4)cc3c2)cn1 [Compound 310, N-(6-(1-Methyl-1H-pyrazol-4-yl)isoquinolin-3-yl)-1-((1-(trifluoromethyl)cyclopropyl)methyl)piperidine-4-carboxamide] |  | 1460 nM |  | 1170 nM | 294 nM | 6.2 nM | 5350 nM |  | 105 nM | 628 nM |  |  |  |  |  |  |
| C[C@H](F)CN1CCC(C(=O)Nc2cc3cc(-c4cnn(C)c4)ccc3cn2)CC1 [Compound 311, (S)-1-(2-Fluoropropyl)-N-(6-(1-methyl-1H-pyrazol-4-yl)isoquinolin-3-yl) piperidine-4-carboxamide] |  |  |  |  |  | 1.9 nM |  |  | 20 nM |  | 578 nM | 396 nM | 76 nM | 751 nM | 163 nM |  |
| Cn1cc(-c2ccc3cnc(NC(=O)C(C)(C)F)cc3c2)nn1 [Compound 312, 2-Fluoro-2-methyl-N-(6-(1-methyl-1H-1,2,3-triazol-4-yl)isoquinolin-3-yl) propanamide] | 23.8% | > 10000 nM | 3.9% | > 10000 nM | > 10000 nM | 12.7 nM | > 10000 nM |  | 31 nM | 762 nM |  |  |  |  |  | 36.5% |
| C[C@@H](F)CN1CCC(C(=O)Nc2cc3cc(-c4cnn(C)c4)ccc3cn2)CC1 [Compound 313, (R)-1-(2-Fluoropropyl)-N-(6-(1-methyl-1H-pyrazol-4-yl)isoquinolin-3-yl) piperidine-4-carboxamide] |  | 577 nM |  | 1010 nM | 105 nM | 2.5 nM | 711 nM |  | 39 nM | 330 nM |  |  |  |  |  |  |
| CC(C(=O)Nc1cc2cc(-c3cnn(C)c3)ccc2cn1)N1CCCCC1 (stereo not shown) [Compound 314, N-(6-(1-Methyl-1H-pyrazol-4-yl)isoquinolin-3-yl)-2-(piperidin-1-yl) propanamide] |  | 859 nM |  | 1270 nM | 45 nM | 22.1 nM | 1200 nM |  | 12 nM | 128 nM |  |  |  |  |  |  |
| [2H]C1([2H])CCC([2H])([2H])N1CC(=O)Nc1cc2cc(-c3cnn(C)c3)ccc2cn1 [Compound 315, N-(6-(1-Methyl-1H-pyrazol-4-yl)isoquinolin-3-yl)-2-(pyrrolidin-1-yl-2,2,5,5-d4)acetamide] |  | 1590 nM |  | 819 nM | 1820 nM | 12.3 nM | 1250 nM |  | 44 nM | 346 nM |  |  |  |  |  |  |
| CN1CCN(C(=O)Nc2cc3cc(-c4cnn(C)c4)ccc3cn2)CC1 [Compound 316, 4-Methyl-N-(6-(1-methyl-1H-pyrazol-4-yl)isoquinolin-3-yl)piperazine-1-carboxamide] |  | 2840 nM |  | 395 nM | 1080 nM | 4.2 nM | 2340 nM |  | 509 nM | 8780 nM |  |  |  |  |  |  |
| C[C@@H](C(=O)Nc1cc2cc(-c3cnn(C)c3)ccc2cn1)N1CCCC1 [Compound 317, (S)—N-(6-(1-Methyl-1H-pyrazol-4-yl)isoquinolin-3-yl)-2-(pyrrolidin-1-yl) propanamide] |  | 1270 nM |  | 1900 nM | 174 nM | 37 nM | 6340 nM |  | 30 nM | 200 nM |  |  |  |  |  |  |
| C[C@H](C(=O)Nc1cc2cc(-c3cnn(C)c3)ccc2cn1)N1CCCC1 [Compound 318, (R)—N-(6-(1-Methyl-1H-pyrazol-4-yl)isoquinolin-3-yl)-2-(pyrrolidin-1-yl) propanamide] |  | 442 nM |  | 1030 nM | 73 nM | 58.8 nM | 940 nM |  | 12 nM | 72 nM |  |  |  |  |  |  |
| Cn1cc(-c2ccc3cnc(NC(=O)[C@H]4CCCN4)cc3c2)cn1 [Compound 320, (R)—N-(6-(1-Methyl-1H-pyrazol-4-yl)isoquinolin-3-yl)pyrrolidine-2-carboxamide] |  | 1140 nM |  | 1260 nM | 69 nM | 9.9 nM | 1780 nM |  | 10 nM | 280 nM |  |  |  |  |  |  |
| Cn1cc(-c2ccc3cnc(NC(=O)C4CC5(C4)CN(C(=O)C(F)(F)F)C5)cc3c2)cn1 [Compound 325, N-(6-(1-Methyl-1H-pyrazol-4-yl)isoquinolin-3-yl)-2-(2,2,2-trifluoroacetyl)-2-azaspiro[3.3]heptane-6-carboxamide] |  | 552 nM |  | 357 nM | 1300 nM | 2.1 nM | 526 nM |  | 3 nM | 440 nM |  |  |  |  |  |  |
| Cn1cc(-c2ccc3cnc(NC(=O)C4CC5(C4)CN(CCF)C5)cc3c2)cn1 [Compound 326, 2-(2-Fluoroethyl)-N-(6-(1-methyl-1H-pyrazol-4-yl)isoquinolin-3-yl)-2-azaspiro[3.3]heptane-6-carboxamide] |  | 438 nM |  | 380 nM | > 10000 nM | 2.9 nM | 400 nM |  | 19 nM | 574 nM |  |  |  |  |  | 47.2% |
| Cn1cc(-c2ccc3cnc(NC(=O)[C@H]4CC[C@H](N(C)C)CC4)cc3c2)cn1 [Compound 327, trans-4-(Dimethylamino)-N-(6-(1-methyl-1H-pyrazol-4-yl)isoquinolin-3-yl)cyclohexane-1-carboxamide] |  | 258 nM |  | 947 nM | 58 nM | 1.7 nM | 1580 nM |  | 66 nM | 411 nM |  |  |  |  |  |  |
| Cn1cc(-c2ccc3cnc(NC(=O)C4CCN(C(=O)c5ccccc5)CC4)cc3c2)cn1 [Compound 328, 1-Benzoyl-N-(6-(1-methyl-1H-pyrazol-4-yl)isoquinolin-3-yl)piperidine-4-carboxamide] |  | 804 nM |  | 398 nM | > 10000 nM | 1.9 nM | 929 nM |  | 16 nM | 231 nM |  |  |  |  |  | 34.5% |
| CC(=O)N1CCC(C(=O)Nc2cc3cc(-c4cnn(C)c4)ccc3cn2)CC1 [Compound 329, 1-Acetyl-N-(6-(1-methyl-1H-pyrazol-4-yl)isoquinolin-3-yl)piperidine-4-carboxamide] |  | 1170 nM |  | 1160 nM | 212 nM | 2.7 nM | 4120 nM |  | 29 nM | 524 nM |  |  |  |  |  |  |
| CN1CCC(N2CCC(C(=O)Nc3cc4cc(-c5cnn(C)c5)ccc4cn3)CC2)CC1 [Compound 331, 1′-Methyl-N-(6-(1-methyl-1H-pyrazol-4-yl)isoquinolin-3-yl)-[1,4′-bipiperidine]-4-carboxamide] |  | 2990 nM |  | 882 nM | 96 nM | 1.8 nM | 3120 nM |  | 55 nM | 311 nM |  |  |  |  |  |  |
| Cn1cc(-c2ccc3cnc(NC(=O)C4CCN(C5CCOCC5)CC4)cc3c2)cn1 [Compound 332, N-(6-(1-Methyl-1H-pyrazol-4-yl)isoquinolin-3-yl)-1-(tetrahydro-2H-pyran-4-yl)piperidine-4-carboxamide] |  | 662 nM |  | 1070 nM | 291 nM | 3.5 nM | 1000 nM |  | 39 nM | 249 nM |  |  |  |  |  |  |
| Cn1cc(-c2ccc3cnc(NC(=O)[C@H]4CC[C@H](CO)CC4)cc3c2)cn1 [Compound 333, trans-4-(Hydroxymethyl)-N-(6-(1-methyl-1H-pyrazol-4-yl)isoquinolin-3-yl)cyclohexane-1-carboxamide] |  | 384 nM |  | 790 nM | 61 nM | 1.2 nM | 641 nM |  | 60 nM | 1100 nM |  |  |  |  |  |  |
| COC(=O)CN1CCC(C(=O)Nc2cc3cc(-c4cnn(C)c4)ccc3cn2)CC1 [Compound 334, Methyl 2-(4-((6-(1-methyl-1H-pyrazol-4-yl)isoquinolin-3-yl)carbamoyl)piperidin-1-yl)acetate] |  | 787 nM |  | 263 nM | 63 nM | 1.6 nM | 7370 nM |  | 47 nM | 820 nM |  |  |  |  |  |  |
